In ChEMBL document CHEMBL4765227, “Hit to lead optimization of a series of N-[4-(1,3-benzothiazol-2-yl)phenyl]acetamides as monoacylglycerol lipase inhibitors with potential anticancer activity” (Eur J Med Chem, 2016):

Key:
Format in all cases: functional
Details in all cases: read-out: GI
PC-3 = assay: Growth inhibition of human PC-3 cells at 10 uM incubated for 48 hrs by sulforhodamine B assay relative to control
SR = assay: Growth inhibition of human SR cells at 10 uM incubated for 48 hrs by sulforhodamine B assay relative to control
SF-539 = assay: Growth inhibition of human SF-539 cells at 10 uM incubated for 48 hrs by sulforhodamine B assay relative to control
SK-MEL-2 = assay: Growth inhibition of human SK-MEL-2 cells at 10 uM incubated for 48 hrs by sulforhodamine B assay relative to control
EKVX = assay: Growth inhibition of human EKVX cells at 10 uM incubated for 48 hrs by sulforhodamine B assay relative to control
SF-295 = assay: Growth inhibition of human SF-295 cells at 10 uM incubated for 48 hrs by sulforhodamine B assay relative to control
A498 = assay: Growth inhibition of human A498 cells at 10 uM incubated for 48 hrs by sulforhodamine B assay relative to control
U-251 = assay: Growth inhibition of human U-251 cells at 10 uM incubated for 48 hrs by sulforhodamine B assay relative to control
UO-31 = assay: Growth inhibition of human UO-31 cells at 10 uM incubated for 48 hrs by sulforhodamine B assay relative to control
HL-60(TB) = assay: Growth inhibition of human HL-60(TB) cells at 10 uM incubated for 48 hrs by sulforhodamine B assay relative to control
Hs-578T = assay: Growth inhibition of human Hs-578T cells at 10 uM incubated for 48 hrs by sulforhodamine B assay relative to control
MDA-MB-468 = assay: Growth inhibition of human MDA-MB-468 cells at 10 uM incubated for 48 hrs by sulforhodamine B assay relative to control
MOLT-4 = assay: Growth inhibition of human MOLT-4 cells at 10 uM incubated for 48 hrs by sulforhodamine B assay relative to control
SN12C = assay: Growth inhibition of human SN12C cells at 10 uM incubated for 48 hrs by sulforhodamine B assay relative to control
OVCAR-8 = assay: Growth inhibition of human OVCAR-8 cells at 10 uM incubated for 48 hrs by sulforhodamine B assay relative to control
HOP-62 = assay: Growth inhibition of human HOP-62 cells at 10 uM incubated for 48 hrs by sulforhodamine B assay relative to control

Structure (SMILES)	inhibition of growth at 10 µM (PC-3)	inhibition of growth at 10 µM (SR)	inhibition of growth at 10 µM (SF-539)	inhibition of growth at 10 µM (SK-MEL-2)	inhibition of growth at 10 µM (EKVX)	inhibition of growth at 10 µM (SF-295)	inhibition of growth at 10 µM (A498)	inhibition of growth at 10 µM (U-251)	inhibition of growth at 10 µM (UO-31)	inhibition of growth at 10 µM (HL-60(TB))	inhibition of growth at 10 µM (Hs-578T)	inhibition of growth at 10 µM (MDA-MB-468)	inhibition of growth at 10 µM (MOLT-4)	inhibition of growth at 10 µM (SN12C)	inhibition of growth at 10 µM (OVCAR-8)	inhibition of growth at 10 µM (HOP-62)
O=C(Cn1nnc2ccccc21)Nc1ccc(-c2nc3ccccc3s2)cc1	16.7%	59.9%	28.8%	-0.54%	21.8%	15.2%	14.9%	10.4%	13.5%	9.24%	-11.5%	124%	38.4%	-0.79%	1.53%	-1.24%
O=C(Cn1cncn1)Nc1ccc(-c2nc3ccccc3s2)cc1	14.2%	16.2%	-7.74%	–	9.8%	8.06%	11.6%	10%	23.1%	-2.11%	-3.42%	130%	8.15%	4.85%	5.43%	-2.28%
O=C(Cn1ccc2ccccc21)Nc1ccc(-c2nc3ccccc3s2)cc1	2.02%	4.51%	-2.36%	–	-7.41%	-3.08%	0.94%	2.41%	7.58%	0.1%	2.29%	150%	5.48%	-1.09%	-4.73%	-3.42%
O=C(CNc1nnc(-c2ccc(Cl)cc2)o1)Nc1ccc(-c2nc3ccccc3s2)cc1	11.4%	28.2%	2.97%	–	-4.4%	-1.52%	18%	18.4%	26.7%	6.27%	3.06%	110%	66.8%	5.48%	-2.95%	-6.78%
Cc1cc(NCC(=O)Nc2ccc(-c3nc4ccccc4s3)cc2)no1	3.37%	30.1%	-5.46%	–	-7.95%	3.62%	10.3%	11.9%	23%	3.55%	-1.12%	147%	53.2%	-2.43%	3.61%	-10.9%
O=C(Cn1cnc2ccccc21)Nc1ccc(-c2nc3ccccc3s2)cc1	33.3%	60%	22.9%	–	46.8%	56.7%	33.2%	30.6%	35.4%	29.8%	8.79%	70.3%	44.2%	16.2%	28%	12.6%
CN1CCN(CC(=O)Nc2ccc(-c3nc4ccccc4s3)cc2)CC1	16.4%	93.7%	132%	–	16.3%	8.86%	40.5%	32.5%	42.5%	3.63%	6.34%	111%	22%	22.3%	8.74%	12.7%
O=C(Cn1ccnc1)Nc1ccc(-c2nc3ccccc3s2)cc1	34.1%	63.5%	18.7%	–	38.6%	34.5%	42.5%	28.1%	39.6%	22.7%	13.1%	99.2%	31.9%	15.4%	19.7%	16.2%
Cc1cc(C)n(CC(=O)Nc2ccc(-c3nc4ccccc4s3)cc2)n1	13.2%	0.6%	1.4%	–	-7.86%	-3.17%	5.37%	10.3%	16.2%	-2.97%	-13.4%	103%	16%	-2.13%	0.31%	-5.06%
O=C(CNc1nc(-c2ccc(Cl)cc2)cs1)Nc1ccc(-c2nc3ccccc3s2)cc1	9.25%	10.3%	3.03%	–	-2.38%	1.37%	-2.14%	8.44%	25.1%	0.71%	8.73%	140%	7.26%	-0.85%	2.01%	-6.21%
O=C(CNc1nc2ccccc2s1)Nc1ccc(-c2nc3ccccc3s2)cc1	4.99%	8.72%	-7.1%	–	-9.9%	-7.45%	6.15%	10.9%	19.5%	0.87%	-0.48%	118%	15.8%	-2.68%	-2.25%	-4.25%
Cc1ccc(NCC(=O)Nc2ccc(-c3nc4ccccc4s3)cc2)cc1	8.39%	19.1%	2.9%	-6.66%	–	-3.28%	–	19.4%	37.5%	18.2%	-3.42%	13%	41.9%	11.1%	7.13%	3.62%
